Results on 89 compounds are retold here after a melting point compilation (Tetko et al.; mined from patent text by program, amines drawn as free bases though some values may be those of a salt).

By melting point is commonly meant the temperature, or range, at which the solid turns liquid. In turn, `CCC(=O)C1C(=O)CC(c2ccccc2Cl)CC1=O` (centres undefined) displayed a melting point of 63 to 64 °C.

`COc1cc(-n2nc(C(F)(F)F)cc2-c2ccc(S(C)(=O)=O)cc2)ccc1F` registered a melting point of 159 to 160 °C.

As to `COc1ccc(Oc2c(C)cc(CC#N)cc2C)cc1C(C)C`, the melting point lay within 56 to 58 °C.

Turning to `Cc1cc(-c2cccc(C3=Nc4ccc(-n5cccc5)cc4NC(=O)C3)c2)ccn1`, the melting point stood at 206 °C.

Consider `COc1ccccc1SCc1c(C(C)C)nc(C(C)C)c(CO)c1-c1ccc(F)cc1`, for which the melting point is 129 to 131 °C.

`O=C(OC1COC(OC(=O)C2CCCCC2)CO1)C1CCCCC1` (centres undefined) registered a melting point of 156 to 158 °C.

The compound `CC12CCC(C(=Cc3ccc(CI)cc3)C1=O)C2(C)C` (centres undefined) registered a melting point of 108 °C.

With `CNC(=S)N1Cc2ccccc2C2(Cc3ccccc3O2)C1` (centres undefined), the melting point is 165 °C.

In turn, `COc1ccccc1CNc1ccc2cc(Nc3nnn(C(C)(C)C)n3)ccc2n1` yielded a melting point of 156 °C.

Take `O=C(Cn1cnnn1)OCc1ccccc1`: the melting point fell in the range of 69 to 72 °C.

Compound `COc1ccc(C(=O)c2ccccn2)c(Cl)c1Cl` showed a melting point of 104 to 107 °C.

The compound `COC(=O)CCc1nc(C(=O)OC)ccc1OC` displayed a melting point of 98 to 100 °C.

As for `Cc1ccc(CC(=O)CCCC(=O)O)c(C)c1`, the melting point fell in the range of 75 to 76.5 °C.

`COCC(C)N(C(=O)CCl)c1c(C)cccc1C` (centres undefined) displayed a melting point of 44 to 46 °C.

For the compound `O=C(Nc1ccc(F)cc1)NN1CCN(C(=O)Cn2c(=O)sc3ccc(Cl)cc32)CC1`, the melting point is over 250 °C.

On to `N#Cc1ccc(SCc2ccccc2)cc1`, for which the melting point was found to be 85 °C.

Take `O=C(CC1CCCC1)c1ccc[nH]1`: the melting point is 49 to 51 °C.

Turning to `Cn1nc(N)cc1COCc1ccccc1`, the melting point stood at 214 °C.

`O=C(Nc1ccccn1)C1=C(O)c2sc3ccccc3c2S(=O)(=O)N1` returned a melting point of 240 to 242 °C.

Take `O=C(Nc1ccc(C(=O)N2Cc3ccccc3-c3ccccc32)cc1)c1ccc(Cl)c(Cl)c1`: the melting point was in the range of 94 to 95 °C.

On to `CCCn1cnc2c1c(=O)n(CCCC(C)(C)O)c(=O)n2C`, for which the melting point was in the range of 96 to 98 °C.

For `CCNC(=O)Oc1cccc(CCNC(=O)/C=C/c2cccnc2)c1`, the melting point is 130 °C.

In turn, `COC(=O)c1ccc(OCCCCl)cc1` showed a melting point of 56.5 to 59 °C.

The compound `Cc1cc(C2=NNC(C(N)=O)Cc3cc4c(cc32)OCO4)ccc1[N+](=O)[O-]` (centres undefined) returned a melting point of 246 to 249 °C.

For `Cc1cc2c(cc1C=O)C(C)(C)CCC2(C)C`, the melting point lay within 82.4 to 84.1 °C.

For the compound `CCCOc1ccc(S(=O)(=O)N2CCC(C(=O)OCC)CC2)cc1-c1nc2cc3nc[nH]c3cc2c(=O)[nH]1`, the melting point fell in the range of 145 to 147 °C.

`CCCCCCOc1ccc(NC(=O)Nc2ccccc2CCc2cc(C(C)(C)C)c(O)c(C(C)(C)C)c2)cc1` displayed a melting point of 174 to 176 °C.

In turn, `O=c1c(Cc2ccccc2)cn(-c2ccc(F)cc2)c2ncccc12` returned a melting point of 208 to 209 °C.

As to `NS(=O)(=O)c1ccc(-c2cc(F)c(F)cc2-c2ccc3c(c2)OCCO3)cc1`, the melting point is 107 to 108 °C.

Compound `CNc1nc(Cl)cc(NS(=O)(=O)c2ccc(Cl)cc2)n1` returned a melting point of 196 to 198 °C.

For `CCSc1ccc(NC(=S)NC(=O)OC)c(N)c1`, the melting point was 168 °C.

In turn, `C#CCCCCn1ncc2c(N)c(C(=O)OCC=C)c(C)nc21` gave a melting point of 69 to 70 °C.

For `O=C(O)CCN1CCN(Cc2ccccc2)CC1`, the melting point is 165 to 166 °C.

`O=c1c2c(Cl)cc(Cl)cc2n(Cc2ccccc2)c(=O)n1Cc1cccc2ccccc12`: the melting point fell in the range of 220 to 226 °C.

Take `CC(C)(C#N)c1cc(Cn2cncn2)cc(C(C)(C)C(N)=O)c1`: the melting point lay within 51 to 53 °C.

In turn, `Fc1ccc(-c2ncn(C3CCNCC3)c2-c2ccnc(Oc3ccc(-c4ccccc4)cc3)n2)cc1` displayed a melting point of 192 to 193 °C.

Regarding `CSc1cn(C)c2cc(-c3ccccc3Cl)sc2c1=O`, the melting point is 175 to 177 °C.

For the compound `CS(=O)(=O)c1ccc(-c2cc(Cl)c(Cl)cc2-c2ccc(F)cc2)cc1`, the melting point was 144 °C.

The compound `CC(=O)OC1CC2CCC3C(CCC4(C)C3CC(N3CCN(C)CC3)C4OC(C)=O)C2(C)CC1N1CCCCC1` (centres undefined) came in with a melting point of 95 to 98 °C.

With `COc1ccc(N2C[C@](C)(COc3ccc(C#N)cc3)OC2=O)cc1`, the melting point lay within 147 to 149 °C.

`CNC(=O)c1ccccc1Nc1nc(Nc2ccc3c(c2)CCOCC3)ncc1Cl` came in with a melting point of 185 °C.

On to `O=c1[nH]c2ccccc2c(=O)n1CCCCNCCCn1c(=O)[nH]c2ccccc2c1=O`, for which the melting point amounted to 140 °C.

`COc1ccc(C2Sc3ccc(OC)cc3N(CCN(C)C)C(=O)C2O)cc1` (centres undefined): the melting point was in the range of 127 to 129 °C.

The compound `O=C(CCc1ccc2ccccc2n1)NO` displayed a melting point of 159 to 160 °C.

In turn, `CCNC(CC)CCOc1ccc(-c2ccc(C(=O)O)cc2)cc1-c1ccc2c(c1)C(C)(C)CCC2(C)C` (centres undefined) yielded a melting point of 195 °C.

The compound `CCc1c(C)c2c(c(O)c1C/C=C(\C)CCC(=O)OC)C(=O)OC2` registered a melting point of 116 °C.

In turn, `Cn1c(CNc2ccc(Oc3cccc(C(F)(F)F)c3)cc2)nc([N+](=O)[O-])c1C#N` registered a melting point of 124 to 126 °C.

In turn, `O=C(O)CC1CCCCCCCCCCC1=O` (centres undefined) showed a melting point of 124 °C.

As to `C[C@@H](SC(CO)CO)[C@](O)(Cn1cncn1)c1ccccc1F`, the melting point was 121 to 123 °C.

`CCn1c(C(C#N)c2cc(C)cc(C#N)c2)c(C(C)C)c(=O)[nH]c1=O` (centres undefined): the melting point was in the range of 260 to 261 °C.

Compound `C#Cc1ccc(CO[C@@H]2COc3nc([N+](=O)[O-])cn3C2)cn1` gave a melting point of 168 to 170 °C.

Take `CN(C)c1ccc(C2(c3ccc(N(C)C)cc3)Oc3ccccc3-c3[nH]c4ccccc4c32)cc1`: the melting point worked out at 145 °C.

As for `CCOC(=O)N=P(c1ccccc1)(c1ccccc1)c1ccccc1CN1CCCC1`, the melting point lay in the range of 120 to 122 °C.

`CC(=O)Nc1nc(NC(C)=O)nc(NC2CC2)n1` displayed a melting point of 267 to 269 °C.

The compound `Nc1c(F)c(F)c(F)c(F)c1S(=O)(=O)O` came in with a melting point of 272 to 276 °C.

`COC(=O)CN1CCc2[nH]c(=O)n3nc(-c4ccccc4F)nc3c2C1` displayed a melting point of 265 to 266 °C.

On to `Nc1ccccc1C1=NN(c2ccc(Cl)cc2)C(=O)C1`, for which the melting point lay in the range of 199 to 201 °C.

Take `ClC(Cl)(Cl)C1Oc2ccc(C=NNc3ccccc3)cc2C(C(Cl)(Cl)Cl)O1` (centres undefined): the melting point was in the range of 191 to 192 °C.

As to `CCCC1(CC(=O)O)OCC(=O)c2c1[nH]c1ccccc21` (centres undefined), the melting point lay in the range of 206 to 208 °C.

`O=C(O)Cc1csc(NC(=O)C(Oc2ccc(F)cc2)c2ccc(S(=O)(=O)C3CC3)cc2)n1` (centres undefined) came in with a melting point of 72 to 73 °C.

Turning to `Cc1ccccc1-c1cccc2c1CNC(=O)N2c1ccccc1`, the melting point was in the range of 236 to 238 °C.

On to `CSc1nn2c(N3CCN(C)CC3)cc(CN3CCOCC3)nc2c1S(=O)(=O)c1ccccc1`, for which the melting point was 199 to 201 °C.

`O=C1NC(C(Cl)(Cl)Cl)Nc2ccc([N+](=O)[O-])cc21` (centres undefined): the melting point lay in the range of 278 to 280 °C.

The compound `CCOC(=O)c1c(Br)c2cc(OCc3ccccc3)ccc2n1C` returned a melting point of 125 to 127 °C.

With `COc1ccc(O)c(C2Sc3ccccc3N(C)C2=O)c1` (single isomer, unassigned; (-)), the melting point lay within 160 to 162 °C.

Turning to `CCCCCCCC/C=C\CCCCCCCCOc1cccc(N(CC(=O)OC)CC(=O)OC)c1`, the melting point lay within 36 to 37 °C.

With `COc1ccc(-c2ccc(C(=O)Nc3cc4ncc(CN5CCCC5)cc4cc3C)cc2F)cc1`, the melting point lay within 165 to 167 °C.

As for `CCn1nnc2cc3c(=O)n(C(C)Cn4ncnn4)nnc3cc2c1=O` (centres undefined), the melting point was 174 to 176 °C.

`CCOC(=O)C=C(C)NC(=O)OCc1ccc(Cl)c(Cl)c1` had a melting point of 83.5 to 85 °C.

On to `CC1CN(c2ccccn2)CCN1Cc1nc2ccccc2[nH]1` (centres undefined), for which the melting point lay within 151 to 153 °C.

For the compound `COC=C(C(=O)OC)c1c(OCc2cc(Cl)ccc2Cl)c(C)nn1C`, the melting point lay in the range of 94 to 96 °C.

In turn, `CCOCc1nc(C(C)(C)O)c(C(=O)OCOC(=O)C(C)(C)C)n1Cc1ccc(-c2ccccc2C(=O)O)cc1` registered a melting point of 65 °C.

As for `COc1cccc(C2=CCN(C(=O)CSCc3c[nH]c4ccccc34)CC2)c1`, the melting point fell in the range of 115 to 117 °C.

In the case of `Cc1nn(-c2ccccn2)c2nccc(O)c12`, the melting point was in the range of 241 to 243 °C.

Take `C=CCc1c(O)cc(OC)cc1C(=O)O`: the melting point lay in the range of 120 to 122 °C.

Turning to `C=CCOC(=O)N1C[C@@H](S)C[C@H]1CNC(=O)c1ccc(C(=O)NCc2ccc(Cl)c(Cl)c2)cn1`, the melting point is 101 to 105 °C.

`N#CC1CC2CCC(C1)N2Cc1ccccc1` (centres undefined): the melting point lay in the range of 119 to 120 °C.

`CC(C)Cn1c(CNC(=O)OC(C)(C)C)c(-c2ccccc2F)c2cc(C(N)=O)ccc2c1=O`: the melting point is 232 to 233 °C.

For `CCCCCCCCCCNC(=O)c1cccc(N)c1`, the melting point fell in the range of 56 to 58 °C.

For the compound `CSc1cc2c(cc1C(F)(F)F)N(C(=O)Nc1cccc(C(=O)NN3CCC(N(C)C)C3)c1)CC2` (centres undefined), the melting point was in the range of 114 to 116 °C.

`Cc1c(C)c(C)c(C2C(=O)Oc3c2cc(C(C)(C)C)cc3C(C)(C)C)c(C)c1C` (centres undefined) gave a melting point of 185 to 190 °C.

Turning to `Cc1cn(C(C)C(=O)O)nc1-c1ccccc1` (centres undefined), the melting point is 151 to 162 °C.

As for `COC(=O)c1ccc(CC(C)NCC(O)c2ccc(O)c(CO)c2)cc1OC` (centres undefined), the melting point lay in the range of 64 to 71 °C.

Turning to `Cc1[nH]c(-c2ccccc2)c(NC(C)C)c1C(=O)c1ccccc1`, the melting point lay in the range of 132 to 136 °C.

`CC[C@@H](NC(=O)CCCCl)C(N)=O` returned a melting point of 118 to 123 °C.

The compound `CCCCCCCCCCCCC1(CCCCCCCCCCCC)c2cc(Br)ccc2-c2ccc(Br)cc21` had a melting point of 49 to 50 °C.

Consider `Cc1nn(C(C)C)cc1C(=O)NC(C#N)c1cccs1` (centres undefined), for which the melting point was in the range of 140 to 142 °C.

As to `O=[N+]([O-])/C=C/c1c2n(c3ccccc13)CCNCC2`, the melting point is 225 to 226 °C.

In the case of `COc1ncc(NC(=S)NC(=O)c2ccccc2)c(OC)n1`, the melting point was determined as 182 °C.
